Test results taken from US20130029967A1, “Fused Imidazo [3,2 - D] Pyrazines as P13 Kinase Inhibitors” (Centro Nacional de Investigaciones Oncologicas (CNIO), priority 2009, published 2013).
pIC50: −log10 of the molar value. Read-outs that look alike come from different tables or passages of the source.

Experiments:
[1] = test system: phospho-Ser-473-Akt; assay: AKT phosphorylation inhibition, Western blot analysis; assay type: cell-based; conditions: cellular p-AKT
Protocol: (§1) Cell culture: The cell lines were obtained from the American Type Culture Collection (ATCC). U2OS (human osteosarcoma) was cultured in Dulbecco's modified Eagle's medium (DMEM). PC3 (human prostate carcinoma), MCF7 (human breast cardinoma), HCT116 (human colon carcinoma), […], U251 (human glyoblastoma) were grown in RPMI. All media were supplemented with 10% fetal bovine serum (FBS) (Sigma) and antibiotics-antimycotics. Cell were maintained in a humidified incubator at 37° C. with 5% CO2 and passaged when confluent using trypsin/EDTA.
AKT phosphorylation Inhibition Western Blot Analysis: Subconfluent cells were incubated under different conditions and washed twice with TBS prior to lysis. Lysis buffer was added containing 50 mM Tris HCl, 150 mM NaCl, 1% NP-40, 2 mM Na3VO4, 100 mM NaF, 20 mM Na4P2O7 and protease inhibitor cocktail (Roche Molecular Biochemicals). The proteins were resolved on 10% SDS-PAGE and transferred to nitrocellulose membrane (Schleicher & Schuell, Dassel, Germany). The membranes were incubated overnight at 4° C. with antibodies specific for Akt, phospho-Ser-473-Akt (Cell Signaling Technology) and α-tubulin (Sigma), they were washed and then incubated with IRDye800 conjugated anti-mouse and Alexa Fluor 680 goat anti-rabbit IgG secondary antibodies. The bands were visualized using an Odyssey infrared imaging system (Li-Cor Biosciences).

[2] = molecular target: T1, PI3K (p110α/p85α) (Homo sapiens, UniProt P42336); assay: PI3K activity assay (ADP Hunter Plus); assay type: biochemical; conditions: quantitative results, read-out: PI3K α IC50
T1 construct: purchased Carna Biosciences 07CBS-0402A
T1 sequence (P42336 whole entry): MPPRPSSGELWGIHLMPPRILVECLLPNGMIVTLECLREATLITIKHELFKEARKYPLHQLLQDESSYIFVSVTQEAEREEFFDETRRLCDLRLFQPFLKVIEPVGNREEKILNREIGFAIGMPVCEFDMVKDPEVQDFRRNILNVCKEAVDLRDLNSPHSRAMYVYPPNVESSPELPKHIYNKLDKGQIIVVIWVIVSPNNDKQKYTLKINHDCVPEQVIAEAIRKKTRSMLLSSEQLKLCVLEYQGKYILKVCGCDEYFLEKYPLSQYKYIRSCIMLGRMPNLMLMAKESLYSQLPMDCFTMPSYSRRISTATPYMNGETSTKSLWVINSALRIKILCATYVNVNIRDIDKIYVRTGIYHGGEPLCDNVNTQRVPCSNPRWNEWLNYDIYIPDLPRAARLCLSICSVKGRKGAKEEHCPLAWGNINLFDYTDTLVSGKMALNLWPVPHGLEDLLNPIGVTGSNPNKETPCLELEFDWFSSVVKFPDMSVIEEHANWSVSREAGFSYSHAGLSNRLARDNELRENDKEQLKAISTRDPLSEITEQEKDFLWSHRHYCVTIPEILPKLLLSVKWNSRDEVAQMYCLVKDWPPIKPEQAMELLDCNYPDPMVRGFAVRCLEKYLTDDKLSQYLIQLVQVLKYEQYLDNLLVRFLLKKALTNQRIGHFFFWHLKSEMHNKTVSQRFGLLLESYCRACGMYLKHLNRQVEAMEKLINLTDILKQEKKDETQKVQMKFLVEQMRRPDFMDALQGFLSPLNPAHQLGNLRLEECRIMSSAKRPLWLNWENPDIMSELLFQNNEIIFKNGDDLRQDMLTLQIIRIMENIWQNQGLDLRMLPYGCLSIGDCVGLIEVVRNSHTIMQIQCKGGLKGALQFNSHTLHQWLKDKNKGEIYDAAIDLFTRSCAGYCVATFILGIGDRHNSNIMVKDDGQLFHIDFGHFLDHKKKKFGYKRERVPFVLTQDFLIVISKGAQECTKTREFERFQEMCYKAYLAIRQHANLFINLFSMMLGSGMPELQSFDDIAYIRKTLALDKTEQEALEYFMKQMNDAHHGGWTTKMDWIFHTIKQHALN
T1 sequence (P27986 whole entry partner): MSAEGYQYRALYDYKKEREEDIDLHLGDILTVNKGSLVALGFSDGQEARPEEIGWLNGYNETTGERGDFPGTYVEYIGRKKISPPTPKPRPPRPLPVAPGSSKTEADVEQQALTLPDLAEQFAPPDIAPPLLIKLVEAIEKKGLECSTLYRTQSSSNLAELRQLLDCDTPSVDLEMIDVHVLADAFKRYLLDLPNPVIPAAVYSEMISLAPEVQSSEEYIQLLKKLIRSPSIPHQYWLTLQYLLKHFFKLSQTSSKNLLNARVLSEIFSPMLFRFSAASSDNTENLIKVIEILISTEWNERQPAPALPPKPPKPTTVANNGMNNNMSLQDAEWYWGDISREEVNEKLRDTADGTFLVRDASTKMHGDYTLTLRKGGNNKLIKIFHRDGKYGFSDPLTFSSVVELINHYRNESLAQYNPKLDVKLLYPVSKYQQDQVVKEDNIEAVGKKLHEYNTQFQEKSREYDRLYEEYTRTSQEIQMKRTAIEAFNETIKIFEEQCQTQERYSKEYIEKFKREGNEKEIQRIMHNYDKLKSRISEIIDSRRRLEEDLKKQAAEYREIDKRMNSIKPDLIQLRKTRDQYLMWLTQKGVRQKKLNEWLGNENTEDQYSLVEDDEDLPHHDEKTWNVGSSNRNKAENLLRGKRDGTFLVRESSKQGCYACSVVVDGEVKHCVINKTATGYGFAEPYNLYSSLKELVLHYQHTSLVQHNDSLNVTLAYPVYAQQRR
Protocol: The kinase activity was measured by using the commercial ADP Hunter™ Plus assay available from DiscoveRx (#33-016), which is a homogeneous assay to measure the accumulation of ADP, a universal product of kinase activity. […] Reaction was carried out for 1 hour at 25° C. Reagent A and B were sequentially added to the wells and plates were incubated for 30 min at 37° C. […] Values were normalized against the control activity included for each enzyme (i.e., 100% PI3 kinase activity, without compound). These values were plot against the inhibitor concentration and were fit to a sigmoid dose-response curve by using the Graphed software.

[3] = test system: phospho-AKT (Ser473) in Osteosarcoma U2OS cells; assay: PI3K cellular activity, ELISA (phospho-AKT Ser473); assay type: cell-based; conditions: Homo sapiens, cellular p-AKT
Protocol: as §1
Activity was measured as endogenous levels of phospho-AKT (Ser473) protein. Osteosarcoma U2OS cells were plated in 96 Poly-D-Lysine coating tissue culture plates (18.000 cells/well). After the treatment with serial dilutions of the compound during 3 h, the cells were fixed directly in the wells with 4% paraformaldehide. After fixing, individual wells went through the same series of steps used for a conventional immunoblot: including blocking with 5% BSA, incubation with 1/1000 of primary antibody-AKT ([…]) in PBS containing 5% BSA at 4° C. overnight (Cell Signalling), washing and incubation with second antibody HRP-anti-mouse IgG for 1 h at RT (Amersham). After the addition of SuperSignal ELISA Femto maximum sensitivity chemiluminescent substrate (Pierce) the results were read in a luminescence plate reader (Victor).

| pIC50 [1] | pIC50 ([2]; PI3Kα) | pIC50 [3] | pIC50 [2] | Compound |
| --- | --- | --- | --- | --- |
| 7.25 | 6.12 |  |  | c1cc(-c2cn3c4c(nc3c(N3CCOCC3)n2)CCNC4)c2cn[nH]c2c1 [2-04] |
| 6.61 | 7.16 |  |  | Nc1ncc(-c2cn3c4c(nc3c(N3CCOCC3)n2)CCN(Cc2ccccn2)C4)cn1 [2-18] |
| 7.11 | 7.08 |  |  | CCOC(=O)N1CCc2nc3c(N4CCOCC4)nc(-c4cnc(N)nc4)c(Cl)n3c2C1 [2-32] |
|  |  | 5.91 |  | CCNC(=O)N1CCc2nc3c(N4CCOCC4)nc(-c4cnc(N)nc4)cn3c2C1 [2-38] |
|  | 8.05 | 7.02 |  | CS(=O)(=O)N1CCc2nc3c(N4CCOCC4)nc(-c4cnc(N)nc4)c(Cl)n3c2C1 [2-49] |
|  | 7.21 | 6.25 |  | CCCNC(=O)N1CCc2nc3c(N4CCOCC4)nc(-c4cnc(N)nc4)cn3c2C1 [2-53] |
|  | 7.11 | 6.07 |  | CC(C)S(=O)(=O)N1CCc2nc3c(N4CCOCC4)nc(-c4cnc(N)nc4)cn3c2C1 [2-59] |
|  | 7.24 | 6.26 |  | Nc1ncc(-c2cn3c4c(nc3c(N3CCOCC3)n2)CCN(C(=O)NC2CCCC2)C4)cn1 [2-66] |
|  | 7.64 | 6.35 |  | Nc1ncc(-c2cn3c4c(nc3c(N3CCOCC3)n2)CCN(S(=O)(=O)C2CCCC2)C4)cn1 [2-69] |
|  | 7.33 | 6.33 |  | COc1ccccc1NC(=O)N1CCc2nc3c(N4CCOCC4)nc(-c4cnc(N)nc4)cn3c2C1 [2-72] |
|  | 7.54 | 6.63 |  | CCS(=O)(=O)N1CCc2nc3c(N4CCOCC4)nc(-c4cnc(N)nc4)cn3c2C1 [2-73] |
|  | 7.13 | 6.05 |  | CN(C)c1ccc(NC(=O)N2CCc3nc4c(N5CCOCC5)nc(-c5cnc(N)nc5)cn4c3C2)cc1 [2-74] |
|  | 7.60 | 6.30 |  | Nc1ncc(-c2cn3c4c(nc3c(N3CCOCC3)n2)CCN(C(=O)NCc2cccc(F)c2)C4)cn1 [2-83] |
|  | 7.27 | 6.46 |  | COCCS(=O)(=O)N1CCc2nc3c(N4CCOCC4)nc(-c4cnc(N)nc4)cn3c2C1 [2-85] |
|  | 7.34 | 6.52 |  | Nc1ncc(-c2cn3c4c(nc3c(N3CCOCC3)n2)CCN(C(=O)NCc2ccccc2F)C4)cn1 [2-90] |
|  | 7.12 | 6.35 |  | Nc1ncc(-c2cn3c4c(nc3c(N3CCOCC3)n2)CCN(C(=O)Nc2cccc(F)c2)C4)cn1 [2-91] |
|  | 7.19 | 6.38 |  | COc1cccc(NC(=O)N2CCc3nc4c(N5CCOCC5)nc(-c5cnc(N)nc5)cn4c3C2)c1 [2-93] |
|  | 7.43 | 6.59 |  | Cc1ccc(CNC(=O)N2CCc3nc4c(N5CCOCC5)nc(-c5cnc(N)nc5)cn4c3C2)cc1 [2-94] |
|  | 7.55 | 6.41 |  | COc1ccc(CNC(=O)N2CCc3nc4c(N5CCOCC5)nc(-c5cnc(N)nc5)cn4c3C2)cc1 [2-96] |
|  | 7.42 | 6.31 |  | COc1cccc(CNC(=O)N2CCc3nc4c(N5CCOCC5)nc(-c5cnc(N)nc5)cn4c3C2)c1 [2-97] |
|  | 7.15 | 6.27 |  | COc1ccc(NC(=O)N2CCc3nc4c(N5CCOCC5)nc(-c5cnc(N)nc5)cn4c3C2)cc1 [2-102] |

| pIC50 [1] | pIC50 ([2]; PI3Kα) | pIC50 [3] | pIC50 [2] | Compound |
| --- | --- | --- | --- | --- |
|  | 7.36 | 6.46 |  | Cc1ccc(NC(=O)N2CCc3nc4c(N5CCOCC5)nc(-c5cnc(N)nc5)cn4c3C2)cc1 [2-105] |
|  | 7.02 | 6.12 |  | CC(C)CS(=O)(=O)N1CCc2nc3c(N4CCOCC4)nc(-c4cnc(N)nc4)cn3c2C1 [2-109] |
| 6.76 |  |  | 7.35 | COc1ccc(CN2CCc3c(nc4c(N5CCOCC5)nc(-c5cnc(N)nc5)cn34)C2=O)cc1 [5-06] |
|  |  | 6.32 | 7.85 | Nc1ncc(-c2cn3c4c(nc3c(N3CCOCC3)n2)CCC(=O)N4)cn1 [5-11] |
| 6.50 |  |  | 7.06 | CN1CCc2c(nc3c(N4CCOCC4)nc(-c4cnc(N)nc4)cn23)C1 [6-02] |
| 6.27 |  |  | 7.30 | COCCN1CCc2c(nc3c(N4CCOCC4)nc(-c4cnc(N)nc4)cn23)C1 [6-03] |
| 6.74 |  |  | 6.92 | COCCN1CCc2c(nc3c(N4CCOCC4)nc(-c4cnc(N)nc4)c(Cl)n23)C1 [6-09] |
|  |  | 6.61 | 7.48 | CS(=O)(=O)N1CCc2c(nc3c(N4CCOCC4)nc(-c4cnc(N)nc4)c(Cl)n23)C1 [6-17] |
|  |  |  | 7.66 | CCS(=O)(=O)N1CCc2c(nc3c(N4CCOCC4)nc(-c4cnc(N)nc4)cn23)C1 [6-20] |
|  |  |  | 7.00 | CC(C)NC(=O)N1CCc2c(nc3c(N4CCOCC4)nc(-c4cnc(N)nc4)cn23)C1 [6-22] |
|  |  | 6.66 | 7.54 | Nc1ncc(-c2cn3c4c(nc3c(N3CCOCC3)n2)CN(C(=O)C2CC2)CC4)cn1 [6-24] |
|  |  | 6.86 | 7.36 | CC(C)C(=O)N1CCc2c(nc3c(N4CCOCC4)nc(-c4cnc(N)nc4)cn23)C1 [6-26] |
|  |  |  | 7.74 | Nc1ncc(-c2cn3c4c(nc3c(N3CCOCC3)n2)CN(S(=O)(=O)C2CCOCC2)CC4)cn1 [6-28] |
|  |  |  | 7.51 | N#CCCCS(=O)(=O)N1CCc2c(nc3c(N4CCOCC4)nc(-c4cnc(N)nc4)cn23)C1 [6-29] |
|  |  | 6.73 | 7.60 | COc1ccccc1NC(=O)N1CCc2c(nc3c(N4CCOCC4)nc(-c4cnc(N)nc4)cn23)C1 [6-33] |
|  |  |  | 7.10 | COCCC(=O)N1CCc2c(nc3c(N4CCOCC4)nc(-c4cnc(N)nc4)cn23)C1 [6-35] |
|  |  | 6.60 | 7.68 | Nc1ncc(-c2cn3c4c(nc3c(N3CCOCC3)n2)CN(C(=O)Nc2ccccc2F)CC4)cn1 [6-36] |
|  |  | 6.73 | 7.77 | CN(C)c1ccc(NC(=O)N2CCc3c(nc4c(N5CCOCC5)nc(-c5cnc(N)nc5)cn34)C2)cc1 [6-39] |
|  |  | 6.86 | 8.15 | Nc1ncc(-c2cn3c4c(nc3c(N3CCOCC3)n2)CN(C(=O)NCc2ccccc2F)CC4)cn1 [6-44] |
|  |  | 7.00 | 7.85 | Nc1ncc(-c2cn3c4c(nc3c(N3CCOCC3)n2)CN(C(=O)Nc2cccc(F)c2)CC4)cn1 [6-45] |
|  |  | 6.95 | 8.15 | COc1ccccc1CNC(=O)N1CCc2c(nc3c(N4CCOCC4)nc(-c4cnc(N)nc4)cn23)C1 [6-46] |
